Results as given in patent US9115127B2 (AMGEN INC., priority 2010, dated 2015).

The compounds below were run against T1, wild-type human ALK (cytoplasmic domain, amino acids 1058-1620, N-terminal GST fusion) (Homo sapiens, UniProt Q9UM73) (assay: ALK Inhibition in Enzyme Assay (Lance TR-FRET kinase assay)). Settings: not given.
T1 construct: The cytoplasmic domain (amino acids 1058-1620) of wild-type human ALK; GST (N); made in house; host or cells: SF9 insect cells
T1 sequence (Q9UM73 1058-1620): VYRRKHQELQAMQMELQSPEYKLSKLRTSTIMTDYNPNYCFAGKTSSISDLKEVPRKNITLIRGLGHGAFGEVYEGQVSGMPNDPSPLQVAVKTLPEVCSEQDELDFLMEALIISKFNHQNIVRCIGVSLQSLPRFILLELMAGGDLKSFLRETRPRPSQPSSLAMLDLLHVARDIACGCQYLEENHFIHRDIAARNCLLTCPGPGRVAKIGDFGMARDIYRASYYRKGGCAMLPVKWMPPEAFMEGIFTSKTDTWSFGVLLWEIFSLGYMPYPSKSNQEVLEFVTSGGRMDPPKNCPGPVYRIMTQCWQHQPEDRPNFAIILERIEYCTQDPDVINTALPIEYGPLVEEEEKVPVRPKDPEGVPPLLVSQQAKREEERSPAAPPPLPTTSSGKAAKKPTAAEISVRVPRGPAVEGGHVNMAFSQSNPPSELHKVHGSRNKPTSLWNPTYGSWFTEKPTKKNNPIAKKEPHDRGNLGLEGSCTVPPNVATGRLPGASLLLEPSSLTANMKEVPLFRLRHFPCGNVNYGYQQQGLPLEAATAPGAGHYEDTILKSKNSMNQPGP
Assay type: biochemical
Method in brief: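 TR-FRET read-out (Eu-W1024 PT66 anti-phosphotyrosine plus streptavidin-allophycocyanin, 320 nm excitation) quantified biotinylated peptide phosphorylation by the purified kinase. Reaction ran 90 minutes at room temperature before quenching with 20 mM EDTA in Tris pH 7.5 buffer with NaCl, BSA and Tween-20.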
`CC(C)NC(=O)[C@H]1CC[C@@H](n2/c(=N/C(=O)c3ccc(F)cc3)[nH]c3cnc(N4CCN(C)CC4)cc32)CC1` [Example 225, (E)-4-Fluoro-N-(1-(cis-4-(isopropylcarbamoyl)cyclohexyl)-6-(4-methylpiperazin-1-yl)-1H-imidazo[4,5-c]pyridin-2(3H)-ylidene)benzamide] was tested, and the IC50 was under 50 nM.
With `CC(C)NC(=O)[C@H]1CC[C@@H](n2/c(=N/C(=O)c3ccc(F)cc3)[nH]c3cnc(NCC(C)(C)O)cc32)CC1` [Example 226, (E)-4-Fluoro-N-(6-(2-hydroxy-2-methylpropylamino)-1-(cis-4-(isopropylcarbamoyl)cyclohexyl)-1H-imidazo[4,5-c]pyridin-2(3H)-ylidene)benzamide] the IC50 was under 50 nM.
In the case of `CC(C)C(=O)N[C@H]1CC[C@@H](n2/c(=N/C(=O)c3ccc(F)cc3)[nH]c3ccc(CN4CCC(C(C)(C)O)CC4)cc32)CC1` [Example 227, (E)-4-Fluoro-N-(6-((4-(2-hydroxypropan-2-yl)piperidin-1-yl)methyl)-1-(cis-4-isobutyramidocyclohexyl)-1H-benzo[d]imidazol-2(3H)-ylidene)benzamide], the IC50 is reported as 50 to 100 nM.
`CC(C)C(=O)N[C@H]1CC[C@@H](n2/c(=N/C(=O)c3cccc(F)c3)[nH]c3ccc(CN4CCC(C(C)(C)O)CC4)cc32)CC1` [Example 228, (E)-3-Fluoro-N-(6-((4-(2-hydroxypropan-2-yl)piperidin-1-yl)methyl)-1-(cis-4-isobutyramidocyclohexyl)-1H-benzo[d]imidazol-2(3H)-ylidene)benzamide] was tested, and the IC50 was 100 to 1000 nM.
For `CC(=O)N[C@H]1CC[C@H](n2/c(=N/C(=O)c3ccc(F)cc3)[nH]c3ccc(CN4CCC(C(C)(C)O)CC4)cc32)CC1` [Example 229, (E)-N-(1-(trans-4-Acetamidocyclohexyl)-6-((4-(2-hydroxypropan-2-yl)piperidin-1-yl)methyl)-1H-benzo[d]imidazol-2(3H)-ylidene)-4-fluorobenzamide], the IC50 was 50 to 100 nM.
In the case of `CC(C)NC(=O)[C@H]1CC[C@@H](n2/c(=N/C(=O)c3ccc(F)cc3)[nH]c3ccc(CN4CCn5c(nnc5C(C)(C)O)C4)cc32)CC1` [Example 230, (E)-4-Fluoro-N-(6-((3-(2-hydroxypropan-2-yl)-5,6-dihydro-[1,2,4]-triazolo[4,3-a]pyrazin-7(8H)-yl)methyl)-1-(cis-4-(isopropylcarbamoyl)cyclohexyl)-1H-benzo[d]imidazol-2(3H)-ylidene)benzamide], the IC50 is reported as under 50 nM.
`CC(C)(O)C1CCN(Cc2ccc3[nH]/c(=N\C(=O)c4cccc(F)c4)n([C@H]4CC[C@@H](C(N)=O)CC4)c3c2)CC1` [Example 231] gave an IC50 of under 50 nM.
With `C=CCNS(=O)(=O)c1cccc(C(=O)/N=c2\[nH]c3ccc(CN4CCC(C(C)(C)O)CC4)cc3n2[C@H]2CC[C@@H](C(N)=O)CC2)c1` [Example 232, (E)-3-(N-Allylsulfamoyl)-N-(1-(cis-4-carbamoylcyclohexyl)-6-((4-(2-hydroxypropan-2-yl)piperidin-1-yl)methyl)-1H-benzo[d]imidazol-2(3H)-ylidene)benzamide] the IC50 was under 50 nM.
With `CC(C)(O)C1CCN(Cc2ccc3[nH]/c(=N\C(=O)c4ccc(F)cc4)n([C@H]4CC[C@H](C(N)=O)CC4)c3c2)CC1` [Example 233, (E)-N-(1-(trans-4-Carbamoylcyclohexyl)-6-((4-(2-hydroxypropan-2-yl)piperidin-1-yl)methyl)-1H-benzo[d]imidazol-2(3H)-ylidene)-4-fluorobenzamide] the IC50 was 50 to 100 nM.
`CC(C)(O)C1CCN(Cc2ccc3[nH]/c(=N\C(=O)c4cccc(F)c4)n([C@H]4CC[C@H](C(N)=O)CC4)c3c2)CC1` [Example 234, (E)-N-(1-(trans-4-Carbamoylcyclohexyl)-6-((4-(2-hydroxypropan-2-yl)piperidin-1-yl)methyl)-1H-benzo[d]imidazol-2(3H)-ylidene)-3-fluorobenzamide] showed an IC50 of 100 to 1000 nM.
Compound `C=CCNS(=O)(=O)c1cccc(C(=O)/N=c2\[nH]c3ccc(CN4CCC(C(C)(C)O)CC4)cc3n2[C@H]2CC[C@H](C(N)=O)CC2)c1` [Example 235, (E)-3-(N-Allylsulfamoyl)-N-(1-(trans-4-carbamoylcyclohexyl)-6-((4-(2-hydroxypropan-2-yl)piperidin-1-yl)methyl)-1H-benzo[d]imidazol-2(3H)-ylidene)benzamide] has an IC50 of under 50 nM.
With `CC(C)NC(=O)[C@H]1CC[C@@H](n2/c(=N/C(=O)c3ccc(F)cc3)[nH]c3cnc(S(C)(=O)=O)cc32)CC1` [Example 236, (E)-4-Fluoro-N-(1-(cis-4-(isopropylcarbamoyl)cyclohexyl)-6-(methylsulfonyl)-1H-imidazo[4,5-c]pyridin-2(3H)-ylidene)benzamide] the IC50 was under 50 nM.
With `COC(=O)Nc1nc2ccc(CN3CCCCC3)cc2n1[C@H]1CC[C@@H](C(=O)NC(C)C)CC1` [Example 237, Methyl 1-(cis-4-(isopropylcarbamoyl)cyclohexyl)-6-(piperidin-1-ylmethyl)-1H-benzo[d]imidazol-2-ylcarbamate] the IC50 was 100 to 1000 nM.
With `CC(C)NC(=O)[C@H]1CC[C@@H](n2/c(=N/C(=O)c3ccc(F)cc3)[nH]c3ccc(S(C)(=O)=O)cc32)CC1` [Example 238, (E)-4-Fluoro-N-(1-(cis-4-(isopropylcarbamoyl)cyclohexyl)-6-(methylsulfonyl)-1H-benzo[d]imidazol-2(3H)-ylidene)benzamide] the IC50 was under 50 nM.
`CC(C)NC(=O)[C@H]1CC[C@@H](n2/c(=N/C(=O)c3ccc(F)cc3)[nH]c3ccc(N4CCS(=O)(=O)CC4)cc32)CC1` [Example 239, (E)-4-Fluoro-N-(1-(cis-4-(isopropylcarbamoyl)cyclohexyl)-6-(thiomorpholine 1,1-dioxide)-1H-benzo[d]imidazol-2(3H)-ylidene)benzamide] showed an IC50 of under 50 nM.
Work on `N#C[C@]1(c2ccccn2)C[C@@H](n2/c(=N/C(=O)c3ccc(F)cc3)[nH]c3cnc(OCCN4CCCCC4)cc32)C1` [Example 240, (E)-N-(1-(trans-3-Cyano-3-(pyridin-2-yl)cyclobutyl)-6-(2-(piperidin-1-yl)ethoxy)-1H-imidazo[4,5-c]pyridin-2(3H)-ylidene)-4-fluorobenzamide] yielded an IC50 of 1000 to 5000 nM.
`N#C[C@]1(c2ccccn2)C[C@H](n2/c(=N/C(=O)c3ccc(F)cc3)[nH]c3cnc(OCCN4CCCCC4)cc32)C1` [Example 241, (E)-N-(1-(cis-3-Cyano-3-(pyridin-2-yl)cyclobutyl)-6-(2-(piperidin-1-yl)ethoxy)-1H-imidazo[4,5-c]pyridin-2(3H)-ylidene)-4-fluorobenzamide] gave an IC50 of 100 to 1000 nM.
`CC(C)(O)C1CCN(Cc2ccc3[nH]/c(=N\C(=O)c4ccc(F)cc4)n([C@H]4CC[C@]5(CC4)NC(=O)NC5=O)c3c2)CC1` [Example 242, (E)-N-(1-((5S,8S)-2,4-Dioxo-1,3-diazaspiro[4.5]decan-8-yl)-6-((4-(2-hydroxypropan-2-yl)piperidin-1-yl)methyl)-1H-benzo[d]imidazol-2(3H)-ylidene)-4-fluorobenzamide] was tested, and the IC50 was 100 to 1000 nM.
`CC(C)(O)C1CCN(Cc2ccc3[nH]/c(=N\C(=O)c4ccc(F)cc4)n([C@H]4CC[C@@H](C(=O)NC5CNC5)CC4)c3c2)CC1` [Example 243] gave an IC50 of under 50 nM.
For `C=CCNS(=O)(=O)c1cccc(C(=O)/N=c2\[nH]c3cnc(OCCN4CCCCC4)cc3n2[C@H]2CC[C@H](C(N)=O)CC2)c1` [Example 244, (E)-3-(N-Allylsulfamoyl)-N-(1-(trans-4-carbamoylcyclohexyl)-6-(2-(piperidin-1-yl)ethoxy)-1H-imidazo[4,5-c]pyridin-2(3H)-ylidene)benzamide], the IC50 was 50 to 100 nM.
In the case of `CNC(=O)[C@H]1CC[C@H](n2/c(=N/C(=O)c3ccc(F)cc3)[nH]c3cnc(OCCN4CCCCC4)cc32)CC1` [Example 246, (E)-4-Fluoro-N-(1-(trans-4-(methylcarbamoyl)cyclohexyl)-6-(2-(piperidin-1-yl)ethoxy)-1H-imidazo[4,5-c]pyridin-2(3H)-ylidene)benzamide], the IC50 is reported as 100 to 1000 nM.
Work on `NC(=O)[C@H]1CC[C@H](n2/c(=N/C(=O)c3cc(F)cc(F)c3)[nH]c3cnc(OCCN4CCCCC4)cc32)CC1` [Example 247, (E)-N-(1-(trans-4-Carbamoylcyclohexyl)-6-(2-(piperidin-1-yl)ethoxy)-1H-imidazo[4,5-c]pyridin-2(3H)-ylidene)-3,5-difluorobenzamide] yielded an IC50 of 1000 to 5000 nM.
`NC(=O)[C@H]1CC[C@H](n2/c(=N/C(=O)c3ccc(F)cc3)[nH]c3cnc(OCCN4CCCCC4)cc32)CC1` [Example 248, (E)-N-(1-(trans-4-Carbamoylcyclohexyl)-6-(2-(piperidin-1-yl)ethoxy)-1H-imidazo[4,5-c]pyridin-2(3H)-ylidene)-4-fluorobenzamide] gave an IC50 of 1000 to 5000 nM.
For `CNC(=O)[C@H]1CC[C@H](n2/c(=N/C(=O)c3cc(F)cc(F)c3)[nH]c3cnc(OCCN4CCCCC4)cc32)CC1` [Example 249, (E)-3,5-Difluoro-N-(1-(trans-4-(methylcarbamoyl)cyclohexyl)-6-(2-(piperidin-1-yl)ethoxy)-1H-imidazo[4,5-c]pyridin-2(3H)-ylidene)benzamide], the IC50 was 1000 to 5000 nM.
Compound `N#C[C@]1(c2cccc(Br)c2)C[C@@H](n2/c(=N/C(=O)c3ccc(F)cc3)[nH]c3cnc(OCCN4CCCCC4)cc32)C1` [Example 250, (E)-N-(1-(trans-3-(3-Bromophenyl)-3-cyanocyclobutyl)-6-(2-(piperidin-1-yl)ethoxy)-1H-imidazo[4,5-c]pyridin-2(3H)-ylidene)-4-fluorobenzamide] has an IC50 of 100 to 1000 nM.

Same assay, conditions: 2 nM enzyme, ATP 40 μM (Km apparent), 90 minutes at room temperature; mean of three replicates
Work on `C=CCNS(=O)(=O)c1cccc(C(=O)/N=c2\[nH]c3cnc(OCCN4CCCCC4)cc3n2C2CCC(C(=O)NC)CC2)c1` [Example 245, (E)-3-(N-Allylsulfamoyl)-N-(1-((1R,4R)-4-(methylcarbamoyl)cyclohexyl)-6-(2-(piperidin-1-yl)ethoxy)-1H-imidazo[4,5-c]pyridin-2(3H)-ylidene)benzamide] yielded an IC50 of 50 to 100 nM.
